These are literature values, as cited in patent US20240191206A1, “SERUM FREE MEDIA FOR SUSPENSION CULTURE OF MAMMALIAN LIVESTOCK PLURIPOTENT STEM CELLS” (ACCELLTA LTD., priority 2021, published 2024).

Structures are written as SMILES.

Regarding `O=S(=O)(F)Cc1ccccc1` [PMSF, phenylmethylsulfonyl fluoride], the stability in water entry is “rapidly degraded”. Further, the “concentration at which proteolytic inhibition occurs” value with serine protease is 0.1 to 1 mM.
